Reference: patent US12662707B2, “MYC amplification drives resistance to pan-RAS inhibitors in pancreatic cancer” (The Trustees of Columbia University in the City of New York, priority 2024, dated 2026)

Columns and labels:
[1] = test system: murine PDAC cell lines; experiment: Murine cell viability assay; assay type: cell-based; details: most murine PDAC cell lines; 72 hours
Protocol: PDAC murine cell lines harboring KrasG12D or KrasG12C mutations were seeded at 2×10^3 in a 96-well plate. Cells were treated 24 hours later with DMSO or serial dilutions of RMC-7977. Cell viability was evaluated 72 hours later by measuring adenosine triphosphate (ATP) levels using the CellTiter-Glo® Luminescent Cell Viability Assay (Promega, G7572) according to the manufacturer's instructions. For experiments comparing naive and resistant cell lines, live cells were fluorescently labelled using Calcein AM (20-minute incubation at 500 nM, Thermo Fisher) and counted using the SpectraMax i3X multimode detection platform (Molecular Devices). Technical triplicates were run for each biological replicate and a total of 3-4 biological replicates was done for each cell line. Growth percentage was calculated by normalizing drug-treated values to DMSO control, which was set to 100%. Four-parameter drug response curves were generated from 3+ biological replicates in GraphPad Prism. Mean±s.d. was plotted for each tested dilution.

[2] = test system: autochthonous KPCY pancreatic tumors; experiment: Short-term study in KPCY mice; assay type: in vivo, mouse; details: daily 25 mg/kg, two weeks
Protocol: Animals were randomized into groups and treated with Vehicle (n=6) or RMC-7977 (25 mg/kg; n=8). Treatments were performed every day via oral gavage for 15 days and ultrasounds were performed on day 8 and 15. Animals were sacrificed after last dose and tissue was collected and preserved as previously described (See Xenograft studies section).

[3] = test system: pERK in KPF/FC tumors; experiment: PK/PD in KPF/FC tumors (pERK IHC); assay type: in vivo; details: Mus musculus, read-out: EC50, pERK inhibition vs RMC-7977 concentration in tumors
Protocol: Tumor formation in KPF/FC (KrasLSL.G12D/+; p53flox/flox; Pdx1-Cre) mice was monitored by bi-weekly palpations until the detection of a mass, which was then confirmed by ultrasound. Tumor-bearing mice were randomized and assigned into groups (n=3/dose/timepoint). Single dose of RMC-7977 was administered orally at 10 mg/kg, 25 mg/kg and 50 mg/kg. The same vehicle formulation was used for the control group. Whole blood and tissue (tumors and colons) were harvested at indicated time points preserved as previously described (See Xenograft studies section).
Whole blood, tumor, colon and skin tissue concentrations of RMC-7977 were determined using liquid chromatography-tandem mass spectrometry (LC-MS/MS) methods. Tissue samples were homogenized with a 5× or 10× volume of homogenization buffer (methanol/15 mM PBS (1:2; v:v) or 15 mM PBS with 10% methanol). […] After thorough mixing and centrifugation, the supernatant was directly analyzed on a Sciex 6500+ triple quadrupole mass spectrometer equipped with an ACQUITY or Shimadzu UPLC system. […] RMC-7977 and IS (verapamil or terfenadine) were detected by positive electrospray ionization using multiple reaction monitoring (RMC-7977: m/z 865.4/706.4 or m/z 865.3/833.5; verapamil: m/z 455.2/164.9; terfenadine: m/z 472.3/436.4). The lower limit of quantification was 0.5 ng/mL or 2.0 ng/mL for blood, tumor, and other tissue. […]

[4] = test system: human PDAC explants; experiment: Ex vivo human PDAC explants, IHC for pERK and CC3; assay type: cell-based
Protocol: Explant culture sponges and optimized culture media were prepared as previously described in Hasselluhn and Decker-Farrell et al.^54. Human tissue samples were obtained from de-identified patients undergoing resection surgeries, primarily pancreaticoduodenectomy (Whipple) or distal pancreatectomy, at New York-Presbyterian/Columbia University Irving Medical Center. Upon receipt of a resected human PDAC fragment (n=4), each tissue sample was cut into […] slices using a Compresstome. Any tumor tissue remaining after sectioning was fixed in 4% paraformaldehyde (Santa Cruz Biotechnology, sc-281692) for 2 hours, at 4° C. as the Day 0 control. […] Each well of a 24 well plate contained one explant slice placed between bottom sponge (1 cm^3) and a top sponge (2-3 mm thick). After 24 hours culture, explants were collected and fixed in 4% PFA for 2 hours. Fixed tissue was then transferred to 70% ethanol and paraffin embedded for long-term storage and further analysis. All tissues were fixed for up to 24 hours using 10% neutral buffered formalin and then moved to 70% ethanol for long term storage. All stainings were performed on 4-μm tissue sections. Sections were deparaffinized using a Leica XL ST5010 autostainer, after which slides were subjected to heat-activated epitope retrieval. […] Slides were further blocked in serum for 1 hour, and primary antibodies were added for overnight incubation at 4° C. […] Following incubation, ImmPACT DAB peroxidase (Vector Laboratories, SK-4100) was used to develop the stain and hematoxylin was used as nuclear counterstain. Stained slides were imaged at 40× magnification. Quantitative analyses of IHC images were performed using ImageJ.

[5] = explants treated for 24 hours, 10-100 nM

Q: What does the source list for `CCn1c(-c2cc(N3CCN(C4CC4)CC3)cnc2[C@H](C)OC)c2c3cc(ccc31)-c1csc(n1)C[C@H](NC(=O)[C@H]1[C@@H]3COC[C@@H]31)C(=O)N1CCC[C@H](N1)C(=O)OCC(C)(C)C2` [RMC-7977]?
A: potency in concentration-response cell viability assays [1]: low nanomolar potency; tumor response ([2]; KPCY, C57Bl/6): regressions in most tumors; impact on animal weight [2]: little impact; EC50 [3]: 321 nM; apoptosis marker cleaved caspase 3 (CC3) (IHC) [4, 5]: increase; pERK expression (IHC) [4, 5]: concentration-dependent decrease; concentration of maximal changes in pERK and CC3 ([4]; highest concentration tested): 100 nM; response of the KRASWT explant model ([4]; one of the four explant models, KRASWT): sensitive
